Results on four molecules are retold here after patent US20220402872A1, “PHOTOPOLYMERIZABLE ANTIBACTERIAL MONOMER” (UNIVERSITA' DEGLI STUDI DI TRIESTE, priority 2019, published 2022).

Each structure is given as a SMILES string.

What all share (format): cell-based
One data set has as its system E. coli (ATCC25922). The data set is described as follows: Determination of the minimum inhibitory concentration (MIC). Particulars: Escherichia coli. The procedure:
(§1) A colony of bacterium taken from agar plate is inoculated in Brain Hearth Infusion medium (BHI) and grown overnight at 37° C. The next day, the bacteria are diluted in fresh medium containing the phenol red indicator, up to a density of 10^6 bacteria/mL.
(§2) A stock solution of 2 mg/mL of compound is prepared in BHI medium containing phenol red.
(§3) In a 96-well plate, the compound stock solution is diluted serially (the concentration is halved at each step) to obtain the following final concentrations after addition of the bacteria suspension: 1 mg/mL; 0.5 mg/mL; 0.25 mg/mL; 0.125 mg/mL; 0.065 mg/mL; 0.032 mg/mL; 0.016 mg/mL; 0.008 mg/mL; 0.004 mg/mL; 0.002 mg/mL; 0.001 mg/mL. A compound-free medium is used as a growth control. A volume of bacterial suspension equal to 0.5*10^6 bacteria/mL is added to each well containing the compound and the control. The dish is incubated at 37° C. for 24 hours. Bacterial growth in each well is detected by the phenol red, which turns from red to yellow following acidification of the medium induced by bacterial metabolism. The lowest concentration of the compound causing no evident color change corresponds to the MIC.
(§4) The compounds according to Examples 1, 3, 5, 6, and 7 were tested on bacterial strains different from S. mutans with the same methods described above, obtaining the MIC and MBC values reported in Table 2.

The next data set deals with S. Aureus (ATCC 25923). The description is as above. To be noted: Staphylococcus aureus, ATCC25923. The procedure: as §1, §2, §3, §4
The subject of another data set is S. Mitis (ATCC 49456). Described as above. To be noted: Streptococcus mitis, ATCC49456. The method, then:
as §1, §2, §3, §4

In another data set the test system is S. Sanguis (ATCC 10556). Described as above. The procedure:
as §1, §2, §3, §4

In data set [1] the test system is primary cells from human dental pulp. The data set is described as follows: Determination of the cytotoxicity (MTS assay). Particulars: for maximum (tested) non-cytotoxic concentration: primary dental pulp cells. The procedure:
Tested cells: primary from dental pulp in complete high glucose DMEM medium+1 mg ascorbic acid, seeded in 96-well dishes;
Cell viability detection method: MTS assay from Promega (CellTiter 96® AQueous One Solution Cell Proliferation Assay) colorimetric metabolic assay that allows to evaluate variations in the number of cells being a dye reduced by cellular dehydrogenases. The greater the number of cells, the greater the amount of reduced compound;
Execution time: 24 hours and 72 hours from treatment;
Negative control: cells seeded in complete DMEM medium (CNT) are used;
Number of samples: for 24 hours, 6 samples of each type; for 72 hours 8 samples of each type.
Procedure: Cells (6000/well) are seeded on a 96-well dish to form a monolayer at approximately 40% confluence. After 24 hours the medium is replaced by a medium in which the compound has previously been solubilized, sterilized by 0.22 micron filtration. Growth medium alone is used as a negative control (CNT). At the following 24 and 72 hours the colorimetric test is performed. The absorbance values for each sample are averaged and the standard deviation calculated. The percent viability is calculated on the negative control.
The compounds according to Examples 1, 5, 6, and 7 were tested in order to evaluate their cytotoxicity on primary cells from human dental pulp according to the “Determination of cytotoxicity” method described above, obtaining the values reported respectively in the following Tables 3, 4, 5, and 6. Cells were extracted from healthy third molars of patients after informed consent (Authorization Single Regional Committee FVG, study ID 2433, 29 Aug. 2018). After extraction, the stem cell nature was ascertained by evaluating the expression of the positive markers CD 90, CD 73, CD 29 and the negative markers CD 14, CD 34 and CD 45.
A general note: Tetrazolium assays rely on reduction of a dye to a coloured formazan, in cell work by metabolically active cells.

For the next data set, the system named is bacteria grown on agar. The data set is described as follows: Determination of bacterial inhibition - agar diffusion test of primer formulations. To be noted: for zone of inhibition at 5 % strength: 5% by weight of compound; for zone of inhibition at 10 % strength: 10% by weight of compound. The source says:
A test adapted from a commonly used method for determining the sensitivity of a bacterial strain to antibiotics in solution, known as Kirby-Bauer antibiotic testing or disc diffusion antibiotic sensitivity testing was used (Brown D F, Kothari D (1975), “Comparison of antibiotic discs from different sources”, J. Clin. Pathol. 28 (10): 779-83. Doi: 10.1136 /jcp.28.10.779). The test performed involves the use of discs imbued with a known concentration of the substance under examination that are placed on a layer of bacteria grown on agar. The diffusion of the bactericidal molecule from the disk into the agar causes the inhibition of bacterial growth in the area surrounding the disk itself where the molecule has spread with the formation of what are called zones of growth inhibition. The diameter of these inhibition zones (transparent circular regions in comparison to the bacterial film) is proportional to the antibacterial efficacy of the molecule to its concentration and to its diffusion ability in the medium.
The bactericidal properties of the compounds according to Examples 1, 3, 5, 6 and 7 were tested in various primer-type preparations, using the method “Bacterial inhibition determination-Agar diffusion test” described above. The disk soaked in the tested primer formulation without addition of compounds according to Examples 1, 3, 5, 6 and 7 was used as a negative reference.
For the tests, the following primer-type formulations were used, identified by the following codes: […]
In general terms: A growth-free zone around the sample is the usual read-out of agar diffusion tests.

Where [2] appears, read: primer L1B, 1% by weight of compound.
[3] abbreviates: primer L3, 1% by weight of compound.
The mark [4] stands for this setting: primer PaA, 1% by weight of compound.

As usually defined, the MIC is the smallest concentration in the dilution series that meets the test's criterion for growth inhibition. Read a low MIC as inhibition by little substance. As usually defined, the zone of inhibition is the size of the clear area around the sample on an inoculated plate. Low readings indicate a weaker effect on the plate, high ones a stronger effect on the plate. As for `C=C(C)C(=O)OCC[N+](CC)(CC)CCCCCCCCCCCC[N+](CC)(CC)CCOC(=O)C(=C)C.[Br-].[Br-]` [Example 5], the MIC was 78 µg/mL with E. coli (ATCC25922), 20 µg/mL with S. Aureus (ATCC 25923), 39 µg/mL against S. Mitis (ATCC 49456) and 20 µg/mL in the data set on S. Sanguis (ATCC 10556). The “% Viability 24 h” value in data set [1] (1 μg/mL) is given as 124.2 ± 6.3%; in data set [1] (10 μg/mL), 119.2 ± 6.8%; in data set [1] (50 μg/mL), 83.4 ± 4.5%; in data set [1] (100 μg/mL), 95.9 ± 7.2%; in data set [1] (500 μg/mL), 2.5 ± 1.0%. Moreover, the “% Viability 72 h” value in data set [1] (1 μg/mL) amounted to 72.6 ± 16.5%; in data set [1] (10 μg/mL) it was 69.7 ± 17.0%; in data set [1] (50 μg/mL) it was 70.8 ± 17.8%; in data set [1] (100 μg/mL), 68.8 ± 17.5%. Also, in data set [1], the “maximum (tested) non-cytotoxic concentration” value was 100 µg/mL. Besides, the zone of inhibition at 1 % strength turned out to be 14 mm with bacteria grown on agar (setting [2]), 13 mm with bacteria grown on agar (setting [3]) and 12 mm in the data set on bacteria grown on agar (setting [4]).
For `C=C(C)C(=O)NCc1cc[n+](CCCCCCCCCCCC[n+]2ccc(CNC(=O)C(=C)C)cc2)cc1.[Br-].[Br-]` [Example 7], the MIC stood at 2.5 µg/mL against E. coli (ATCC25922), 2.5 µg/mL in the data set with S. Aureus (ATCC 25923), 20 µg/mL against S. Mitis (ATCC 49456) and 10 µg/mL against S. Sanguis (ATCC 10556). The “% Viability 24 h” value is given as 110.8 ± 15.9% in data set [1] (1 μg/mL); 105.9 ± 11.9% in data set [1] (10 μg/mL); 96.1 ± 10.5% in data set [1] (50 μg/mL); 91.7 ± 12.0% in data set [1] (100 μg/mL); 91.9 ± 16.8% in data set [1] (500 μg/mL); 49.1 ± 8.1% in data set [1] (1 mg/mL). The “% Viability 72 h” value in data set [1] (1 μg/mL) is recorded as 97.3 ± 17.5%; in data set [1] (10 μg/mL), 100.6 ± 17.7%; in data set [1] (50 μg/mL) it was 86.3 ± 16.4%; in data set [1] (100 μg/mL) it was 71.8 ± 13.4%; in data set [1] (500 μg/mL) it was 26.5 ± 5.1%; in data set [1] (1 mg/mL), 5.0 ± 2.3%. In addition, the “maximum (tested) non-cytotoxic concentration” value in data set [1] turned out to be 50 µg/mL. In addition, the zone of inhibition at 1 % strength with bacteria grown on agar (setting [2]) was found to be 17 mm; in the data set with bacteria grown on agar (setting [3]), 14 mm; with bacteria grown on agar (setting [4]), 13 mm.
As for `C=C(C)C(=O)Nc1ccc([N+](C)(C)CCCCCCCCCCCC[N+](C)(C)c2ccc(NC(=O)C(C)=O)cc2)cc1.[Br-].[Br-]` [Example 6], the MIC in the data set with E. coli (ATCC25922) came to 2 µg/mL; with S. Aureus (ATCC 25923), 10 µg/mL; against S. Mitis (ATCC 49456) it was 10 µg/mL; against S. Sanguis (ATCC 10556), 5 µg/mL. The “% Viability 24 h” value in data set [1] (1 μg/mL) is 95.2 ± 13.2%; in data set [1] (10 μg/mL) it was 99.5 ± 13.5%; in data set [1] (50 μg/mL), 81.7 ± 8.2%; in data set [1] (100 μg/mL) it was 11.3 ± 2.1%; in data set [1] (500 μg/mL), 1.6 ± 0.9%; in data set [1] (1 mg/mL) it was 2.5 ± 0.9%. Besides, the “% Viability 72 h” value in data set [1] (1 μg/mL) came out at 103.2 ± 18.9%; in data set [1] (10 μg/mL), 97.7 ± 14%; in data set [1] (50 μg/mL), 71.5 ± 16.3%; in data set [1] (100 μg/mL), 2.0 ± 0.8%; in data set [1] (500 μg/mL) it was 2.6 ± 3.6%; in data set [1] (1 mg/mL) it was 3.5 ± 1.5%. Moreover, the zone of inhibition at 1 % strength was found to be 14 mm in the data set on bacteria grown on agar (setting [2]), 15 mm with bacteria grown on agar (setting [3]) and 15 mm in the data set with bacteria grown on agar (setting [4]).
With `C=C(C)C(=O)OCC[N+](C)(C)CCCCCCCCCCCC[N+](C)(C)CCOC(=O)C(=C)C.[Br-].[Br-]` [Example 1], the MIC in the data set on E. coli (ATCC25922) stood at 625 µg/mL; with S. Aureus (ATCC 25923) it was 156 µg/mL; with S. Mitis (ATCC 49456), 310 µg/mL; with S. Sanguis (ATCC 10556) it was 310 µg/mL. The “decrease in cell viability” value in data set [1] is given as “did not show significant signs of decrease in cell viability”. In addition, the “% Viability 24 h” value in data set [1] (10 μg/mL) stood at 95.3 ± 12.5%; in data set [1] (50 μg/mL), 105.6 ± 11.2%; in data set [1] (100 μg/mL), 102.7 ± 7.2%; in data set [1] (500 μg/mL), 86.6 ± 5.5%; in data set [1] (2 mg/mL), 80.6 ± 5.3%. The “% Viability 72 h” value in data set [1] (10 μg/mL) is reported as 110.0 ± 13.8%; in data set [1] (50 μg/mL) it was 111.0 ± 7.2%; in data set [1] (100 μg/mL), 122.4 ± 7.0%; in data set [1] (500 μg/mL), 115.3 ± 11.6%; in data set [1] (2 mg/mL), 76.9 ± 8.4%. The zone of inhibition at 1 % strength with bacteria grown on agar (primer L1A, 1% by weight of compound) amounted to 15 mm; in the data set with bacteria grown on agar (setting [2]), 5 mm; with bacteria grown on agar (primer L1C, 1% by weight of compound), 10 mm. Besides, the zone of inhibition at 5 % strength in the data set with bacteria grown on agar (primer L1A) was determined as 20 mm; with bacteria grown on agar (primer L1B) it was 15 mm; in the data set on bacteria grown on agar (primer L1C) it was 15 mm. The values for the zone of inhibition at 10 % strength in the data set with bacteria grown on agar (primer L1A), in the data set on bacteria grown on agar (primer L1B) and in the data set on bacteria grown on agar (primer L1C) were 25 mm, 19 mm and 20 mm, respectively.
